Results from patent US20230391786A1, “cGAS INHIBITORS” (Eli Lilly and Company, priority 2022, published 2023).

Tests used:
[1] = target: recombinant human cGAS (Homo sapiens (Human), UniProt Q8N884); test: In vitro inhibition assay of cGAS activity (cGAMP production, RapidFire mass spectrometry); format: biochemical; settings: 10 nM recombinant human cGAS, 60 nM 75-bp dsDNA, ATP, GTP, room temperature 3 hours, read-out: IC50 (μM), In vitro inhibition assay for Compounds 95-348
Method in brief: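 Full-length His6-tagged human cGAS (10 nM, E. coli-expressed) was incubated 3 h at room temperature with 60 nM 75-bp dsDNA, ATP, 50 μM GTP and compound at pH 7.5 with 5 mM MgCl2. cGAMP formation was measured by RapidFire mass spectrometry, and IC50 was taken from a 4-parameter logistic fit.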

[2] = system: cGAS activity in THP1 cells (IFNb as marker); test: Cellular assay to measure cGAS activity (IFNb production in PMA-differentiated THP1 cells stimulated by RDG-Adenovirus-GFP); format: cell-based, human; settings: Homo sapiens, THP-1, THP1 cells, PMA differentiated, RDG-Adenovirus-GFP 1000 MOI, IFNb AlphaLISA, overnight incubation; read-out: IC50 (μM), Cellular assay for Compounds 95-348
Method: Cellular assay to measure cGAS activity: Use THP1 cell line from ATCC to determine inhibition of cGAS activity by test compounds in human cells. Plate cells on 96-well plates at 0.2×10^6/well and differentiate with phorbol myristate acetate (PMA) at 37° C./5% CO2. After 24 hours, replace PMA containing media with media lacking PMA and further incubate overnight. Stimulate cells were then by RDG-Adenovirus-GFP (Vector Biolabs #1768) at 1000 MOI for 4 hours prior to the addition of test compounds. After overnight incubation, transfer 10 μL of the media from each well to a new plate for IFNb analysis as a marker for cGAS activity. Measure quantification of IFNb with an IFNb AlphaLISA Detection kit (Perkin Elmer AL3133F) by mixing the acceptor beads with the cell supernatant followed by the addition of the biotinylated antibody and donor beads. Measure the relative fluorescence signal produced from the interaction of the donor and acceptor beads by a PHERAStar AlphaLISA protocol and evaluate the inhibitory effect of a compound by plotting specific inhibition of IFNb production against log concentration of the test compound. Calculate IC50 values using a 4-parameter non-linear logistic equation (y=(S0+((SInf−S0)/(1+((qAC50/x)^nHill))))).

Sequence of recombinant human cGAS (Q8N884 whole entry): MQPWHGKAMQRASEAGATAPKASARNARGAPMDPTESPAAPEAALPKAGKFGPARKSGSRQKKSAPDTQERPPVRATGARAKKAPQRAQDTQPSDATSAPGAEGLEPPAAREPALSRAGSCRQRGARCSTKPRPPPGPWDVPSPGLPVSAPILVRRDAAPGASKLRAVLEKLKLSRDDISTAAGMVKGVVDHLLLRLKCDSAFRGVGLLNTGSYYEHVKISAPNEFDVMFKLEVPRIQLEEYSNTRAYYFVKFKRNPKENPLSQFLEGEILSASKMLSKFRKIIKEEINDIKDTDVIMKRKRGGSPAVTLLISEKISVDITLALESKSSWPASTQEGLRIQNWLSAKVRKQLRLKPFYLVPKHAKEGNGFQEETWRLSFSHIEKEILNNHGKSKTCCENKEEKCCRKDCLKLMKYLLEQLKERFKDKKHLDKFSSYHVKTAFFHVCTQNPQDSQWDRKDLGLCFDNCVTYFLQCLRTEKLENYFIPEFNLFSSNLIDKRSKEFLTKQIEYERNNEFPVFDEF

Row | IC50 [1] | IC50 [2] | Compound
1 | 0.0202 µM | 0.317 µM | COCc1[nH]c2c(Cl)c(Cl)cc(NC(=O)C(F)F)c2c1-c1cn[nH]c1 [Example 132, N-(6,7-Dichloro-2-(methoxymethyl)-3-(1H-pyrazol-4-yl)-1H-indol-4-yl)-2,2-difluoroacetamide]
2 | 0.0112 µM | 0.498 µM | Cn1c(CNC(=O)CO)c(-c2cn[nH]c2)c2ccc(Cl)c(Cl)c21 [Example 133, N-[[6,7-Dichloro-1-methyl-3-(1H-pyrazol-4-yl)indol-2-yl]methyl]-2-hydroxy-acetamide]
3 | 0.0282 µM | 1.59 µM | CC(=O)NCc1c(-c2cn[nH]c2)c2ccc(Cl)c(Cl)c2n1C [Example 134, N-[[6,7-Dichloro-1-methyl-3-(1H-pyrazol-4-yl)indol-2-yl]methyl]acetamide]
4 | 0.0486 µM | > 10 µM | N#CCNc1cc(Cl)c(Cl)c2c1c(-c1cn[nH]c1)c1n2CCNC1=O [Example 135, 2-[[6,7-Dichloro-1-oxo-10-(1H-pyrazol-4-yl)-3,4-dihydro-2H-pyrazino[1,2-a]indol-9-yl]amino]acetonitrile]
5 | 0.0764 µM | 3.42 µM | CC(=O)NCCn1cc(-c2cn[nH]c2)c2c(OCC#N)cc(Cl)c(Cl)c21 [Example 136, N-[2-[6,7-Dichloro-4-(cyanomethoxy)-3-(1H-pyrazol-4-yl)indol-1-yl]ethyl]acetamide]
6 | 0.0462 µM | 4.99 µM | OCCn1cc(-n2cc(-c3cn[nH]c3)c3ccc(Cl)c(Cl)c32)nn1 [Example 138, 2-[4-[6,7-Dichloro-3-(1H-pyrazol-4-yl)indol-1-yl]triazol-1-yl]ethanol]
7 | 0.077 µM | 5.13 µM | OCCCn1cc(-n2cc(-c3cn[nH]c3)c3ccc(Cl)c(Cl)c32)nn1 [Example 139, 3-[4-[6,7-Dichloro-3-(1H-pyrazol-4-yl)indol-1-yl]triazol-1-yl]propan-1-ol]
8 | 0.0481 µM | 7.11 µM | OCC(O)Cn1cc(-n2cc(-c3cn[nH]c3)c3ccc(Cl)c(Cl)c32)nn1 (stereo not shown) [Example 140, 3-[4-[6,7-Dichloro-3-(1H-pyrazol-4-yl)indol-1-yl]triazol-1-yl]propane-1,2-diol]
9 | 0.0275 µM | 3.3 µM | CNC(=O)CC(=O)NC1CCc2c(-c3cn[nH]c3)c3ccc(Cl)c(Cl)c3n2C1 (stereo not shown) [Example 141, N′-[3,4-Dichloro-10-(1H-pyrazol-4-yl)-6,7,8,9-tetrahydropyrido[1,2-a]indol-7-yl]-N-methyl-propanediamide]
10 | 0.0127 µM | 3.14 µM | N#CCOc1cc(Cl)c(Cl)c2c1c(-c1cn[nH]c1)c1n2CCN(CCO)C1=O [Example 142, 2-[[6,7-Dichloro-2-(2-hydroxyethyl)-1-oxo-10-(1H-pyrazol-4-yl)-3,4-dihydropyrazino[1,2-a]indol-9-yl]oxy]acetonitrile]
11 | 0.0419 µM | > 10 µM | N#CCNc1cc(Cl)c(Cl)c2c1c(-c1cn[nH]c1)c1n2CCN(CCO)C1=O [Example 143, 2-[[6,7-Dichloro-2-(2-hydroxyethyl)-1-oxo-10-(1H-pyrazol-4-yl)-3,4-dihydropyrazino[1,2-a]indol-9-yl]amino]acetonitrile]
12 | 0.00433 µM | 1.47 µM | OCCCNc1cc(Cl)c(Cl)c2[nH]cc(-c3cn[nH]c3)c12 [Example 144, 3-[[6,7-Dichloro-3-(1H-pyrazol-4-yl)-1H-indol-4-yl]amino]propan-1-ol]
13 | 0.0804 µM | > 10 µM | O=C(CO)Nc1cc(Cl)c(Cl)c2c1c(-c1cn[nH]c1)c1n2CCN(C(=O)CO)C1 [Example 145, N-(6,7-Dichloro-2-(2-hydroxyacetyl)-10-(1H-pyrazol-4-yl)-1,2,3,4-tetrahydropyrazino[1,2-a]indol-9-yl)-2-hydroxyacetamide]
14 | 0.0918 µM | > 10 µM | CC(=O)N1CCn2c(c(-c3cn[nH]c3)c3c(NC(=O)CO)cc(Cl)c(Cl)c32)C1 [Example 146, N-(2-Acetyl-6,7-dichloro-10-(1H-pyrazol-4-yl)-1,2,3,4-tetrahydropyrazino[1,2-a]indol-9-yl)-2-hydroxyacetamide]
